# Laboratory results: paper doi:10.1101/2021.10.07.463234v2 (biorxiv, 2021)
# Structures can show the parent of a compound that is named as a salt.
# Target: SARS-CoV-2 Mac1 (Severe acute respiratory syndrome coronavirus 2, UniProt P0DTD1)
# Test: biochemical
# Settings: 100 µM; inhibitor
row,SMILES,%inhibition [%]
1,C/C(=C\C(=O)OCCCCCCCCC(=O)O)C[C@@H]1OC[C@H](C[C@@H]2O[C@H]2[C@@H](C)[C@H](C)O)[C@@H](O)[C@H]1O [Mupirocin calcium],3.887
2,C/C(=C\C(=O)OCCCCCCCCC(=O)O)C[C@@H]1OC[C@H](C[C@@H]2O[C@H]2[C@@H](C)[C@H](C)O)[C@@H](O)[C@H]1O [Mupirocin],0
3,COc1ccc2[nH]c([S@@+]([O-])Cc3ncc(C)c(OC)c3C)nc2c1 [NEXIUM (esomeprazole magnesium)],21.09
4,COc1ccccc1N1CCN(CC(O)COc2cccc3ccccc23)CC1 (stereo not drawn) [Naftopidil DiHCl],0
5,COc1ccccc1N1CCN(CC(O)COc2cccc3ccccc23)CC1 (stereo not drawn) [Naftopidil],1.252
6,Cc1cn(-c2cc(NC(=O)c3ccc(C)c(Nc4nccc(-c5cccnc5)n4)c3)cc(C(F)(F)F)c2)cn1 [Nilotinib (AMN-107)],40.49
7,Cc1cn(-c2cc(NC(=O)c3ccc(C)c(Nc4nccc(-c5cccnc5)n4)c3)cc(C(F)(F)F)c2)cn1 [Nilotinib hydrochloride],3.764
8,COC(=O)c1ccc2c(C(=Nc3ccc(N(C)C(=O)CN4CCN(C)CC4)cc3)c3ccccc3)c(O)[nH]c2c1 [Nintedanib (BIBF 1120)],17.91
9,COC(=O)c1ccc2c(C(=Nc3ccc(N(C)C(=O)CN4CCN(C)CC4)cc3)c3ccccc3)c(O)[nH]c2c1 [Nintedanib Ethanesulfonate Salt],8.812
10,NC(=O)c1cccc2cn(-c3ccc([C@@H]4CCCNC4)cc3)nc12 [Niraparib (MK-4827) tosylate],14.33
11,NC(=O)c1cccc2cn(-c3ccc([C@@H]4CCCNC4)cc3)nc12 [Niraparib (MK-4827)],4.387

# Same assay, conditions: read-out: %inhibition
row,SMILES,inhibition at 100 µM [%]
1,COc1nc(C)nc(Cl)c1NC1=NCCN1 [Moxonidine],0
2,Cc1ccccc1C(=O)Nc1ccc(C(=O)N2CCCC(N(C)C)c3ccccc32)cc1 (stereo not drawn) [Mozavaptan],21.9
3,FC(F)(F)c1ccc(/C=C/c2nc(COc3ccc(CCCCn4ccnn4)cc3)co2)cc1 [Mubritinib (TAK 165)],0
4,COc1c(C)c2c(c(O)c1C/C=C(\C)CCC(=O)OCCN1CCOCC1)C(=O)OC2 [Mycophenolate Mofetil],0
5,COc1c(C)c2c(c(O)c1C/C=C(\C)CCC(=O)O)C(=O)OC2 [Mycophenolic acid],0
6,COc1ccc2cc(CCC(C)=O)ccc2c1 [Nabumetone],0
7,CC1CCc2c(N3CCC(O)CC3)c(F)cc3c(=O)c(C(=O)O)cn1c23 (stereo not drawn) [Nadifloxacin],0
8,N=C(N)Nc1ccc(C(=O)Oc2ccc3cc(C(=N)N)ccc3c2)cc1 [Nafamostat Mesylate],0
9,CCOc1ccc2ccccc2c1C(=O)N[C@@H]1C(=O)N2[C@@H]1SC(C)(C)[C@@H]2C(=O)O [Nafcillin Sodium],0
10,CCn1cc(C(=O)O)c(=O)c2ccc(C)nc21 [Nalidixic acid],0
11,C=C1CC[C@@]2(O)[C@H]3Cc4ccc(O)c5c4[C@@]2(CCN3CC2CC2)[C@H]1O5 [Nalmefene HCl],0
12,O=C1CC[C@@]2(O)[C@H]3Cc4ccc(O)c5c4[C@@]2(CCN3CC2CC2)[C@H]1O5 [Naltrexone HCl],0
13,CC(=O)c1cc2c(o1)C(=O)c1ccccc1C2=O [Napabucasin],6.24
14,c1ccc2c(CC3=NCCN3)cccc2c1 [Naphazoline HCl],8.42
15,COc1ccc2cc([C@H](C)C(=O)O)ccc2c1 [Naproxen Sodium],0
16,CNS(=O)(=O)CCc1ccc2[nH]cc(C3CCN(C)CC3)c2c1 [Naratriptan HCl],0
17,C[C@@H]1C/C=C/C=C/C=C/C=C/[C@H](O[C@@H]2O[C@H](C)[C@@H](O)[C@H](N)[C@@H]2O)C[C@@H]2O[C@](O)(C[C@@H](O)C[C@H]3O[C@@H]3/C=C/C(=O)O1)C[C@H](O)[C@H]2C(=O)O [Natamycin],0
18,CC(C)[C@H]1CC[C@H](C(=O)N[C@H](Cc2ccccc2)C(=O)O)CC1 [Nateglinide],0
19,O[C@H](CNC[C@@H](O)[C@H]1CCc2cc(F)ccc2O1)[C@@H]1CCc2cc(F)ccc2O1 [Nebivolol HCl],0
20,CCc1nn(CCCN2CCN(c3cccc(Cl)c3)CC2)c(=O)n1CCOc1ccccc1 [Nefazodone hydrochloride],14
21,Cc1cccc(C)c1NC(=O)CN1CCCC1=O [Nefiracetam],8.32
22,CN1CCOC(c2ccccc2)c2ccccc2C1 (stereo not drawn) [Nefopam HCl],0

row,SMILES,inhibition at 100 µM [%]
1,COc1nc(N)nc2c1ncn2[C@@H]1O[C@H](CO)[C@@H](O)[C@@H]1O [Nelarabine],50.5
2,Cc1c(O)cccc1C(=O)N[C@@H](CSc1ccccc1)[C@H](O)CN1C[C@H]2CCCC[C@H]2C[C@H]1C(=O)NC(C)(C)C [Nelfinavir Mesylate],0.155
3,NC[C@@H]1O[C@H](O[C@H]2[C@@H](O)[C@H](O[C@@H]3[C@@H](O)[C@H](N)C[C@H](N)[C@H]3O[C@H]3O[C@H](CN)[C@@H](O)[C@H](O)[C@H]3N)O[C@@H]2CO)[C@H](N)[C@@H](O)[C@@H]1O [Neomycin sulfate],0
4,CN(C)C(=O)Oc1cccc([N+](C)(C)C)c1 [Neostigmine Bromide],0
5,NC(=O)Cc1cccc(C(=O)c2ccccc2)c1N [Nepafenac],0
6,CCOc1cc2ncc(C#N)c(Nc3ccc(OCc4ccccn4)c(Cl)c3)c2cc1NC(=O)/C=C/CN(C)C [Neratinib (HKI-272)],4.82
7,CCCCCOc1ccccc1/C(=C\SC)n1ccnc1 [Neticonazole Hydrochloride],0
8,CCN[C@@H]1C[C@H](N)[C@@H](O[C@H]2OC(CN)=CC[C@H]2N)[C@H](O)[C@H]1O[C@H]1OC[C@](C)(O)[C@H](NC)[C@H]1O [Netilmicin Sulfate],0
9,Cc1ccccc1-c1cc(N2CCN(C)CC2)ncc1N(C)C(=O)C(C)(C)c1cc(C(F)(F)F)cc(C(F)(F)F)c1 [Netupitant],6.47
10,Cc1ccnc2c1NC(=O)c1cccnc1N2C1CC1 [Nevirapine],20.6
11,O=C(CCNNC(=O)c1ccncc1)NCc1ccccc1 [Nialamide],25
12,COC(=O)C1=C(C)NC(C)=C(C(=O)OCCN(C)Cc2ccccc2)C1c1cccc([N+](=O)[O-])c1 (stereo not drawn) [Nicardipine],0
13,O=C(NCCO[N+](=O)[O-])c1cccnc1 [Nicorandil],15.7
14,NC(=O)c1cccnc1 [Nicotinamide (Vitamin B3)],16
15,CN1CCC[C@H]1c1cccnc1 [Nicotine Ditartrate],0
16,O=C(O)c1cccnc1 [Nicotinic Acid],28.8
17,COC(=O)C1=C(C)NC(C)=C(C(=O)OC)C1c1ccccc1[N+](=O)[O-] [Nifedipine],16
18,Cc1c(NC(=O)c2cccnc2)c(=O)n(-c2ccccc2)n1C [Nifenazone],3.55
19,O=C(O)c1cccnc1Nc1cccc(C(F)(F)F)c1 [Niflumic acid],11
20,O=C(N/N=C/c1ccc([N+](=O)[O-])o1)c1ccc(O)cc1 [Nifuroxazide],0.953
21,CCN(CC)C(=O)c1cccnc1 [Nikethamide],0
22,CC1(C)NC(=O)N(c2ccc([N+](=O)[O-])c(C(F)(F)F)c2)C1=O [Nilutamide],3.89

row,SMILES,inhibition at 100 µM [%]
1,COC(=O)C1=C(C#N)NC(C)=C(C(=O)OC(C)C)C1c1cccc([N+](=O)[O-])c1 (stereo not drawn) [Nilvadipine],0
2,CS(=O)(=O)Nc1ccc([N+](=O)[O-])cc1Oc1ccccc1 [Nimesulide],0
3,COCCOC(=O)C1=C(C)NC(C)=C(C(=O)OC(C)C)C1c1cccc([N+](=O)[O-])c1 (stereo not drawn) [Nimodipine],21.8
4,Cc1ncc(CNC(=O)N(CCCl)N=O)c(N)n1 [Nimustine Hydrochloride],0
5,COC(=O)C1=C(C)NC(C)=C(C(=O)OCC(C)C)C1c1ccccc1[N+](=O)[O-] (stereo not drawn) [Nisoldipine],16.9
6,CC(=O)Oc1ccccc1C(=O)Nc1ncc([N+](=O)[O-])s1 [Nitazoxanide],0
7,O=C1CCCC(=O)C1C(=O)c1ccc(C(F)(F)F)cc1[N+](=O)[O-] [Nitisinone],2.19
8,CCOC(=O)C1=C(C)NC(C)=C(C(=O)OC)C1c1cccc([N+](=O)[O-])c1 (stereo not drawn) [Nitrendipine],4.31
9,NC(=O)N/N=C/c1ccc([N+](=O)[O-])o1 [Nitrofural],0
10,O=C1CN(/N=C/c2ccc([N+](=O)[O-])o2)C(=O)N1 [Nitrofurantoin],4.04
11,O=[N+]([O-])c1ccc(O)c2ncccc12 [Nitroxoline],0
12,CNC(=C[N+](=O)[O-])NCCSCc1csc(CN(C)C)n1 [Nizatidine],46.1
13,CCCCCCCCC(=O)NCc1ccc(O)c(OC)c1 [Nonivamide],1.16
14,NC[C@H](O)c1ccc(O)c(O)c1 [Noradrenaline bitartrate monohydrate],18.9
15,C#C[C@]1(O)CC[C@H]2[C@@H]3CCC4=CC(=O)CC[C@@H]4[C@H]3CC[C@@]21C [Norethindrone],0
16,CCn1cc(C(=O)O)c(=O)c2cc(F)c(N3CCNCC3)cc21 [Norfloxacin],24.7
17,C#CC1(O)CC[C@H]2[C@@H]3CCC4=CC(=O)CC[C@@H]4[C@H]3CC[C@@]21CC (stereo partly drawn) [Norgestrel],0
18,CNCCC=C1c2ccccc2CCc2ccccc21 [Nortriptyline hydrochloride],0
19,OC1C[C@H]2CC[C@@H](C1)N2 (stereo partly drawn) [Nortropine Hydrochloride],6.37
20,CO[C@@H]1[C@@H](OC(N)=O)[C@@H](O)[C@H](Oc2ccc3c(O)c(NC(=O)c4ccc(O)c(CC=C(C)C)c4)c(=O)oc3c2C)OC1(C)C [Novobiocin Sodium],0
